From PMC8621208, “Antiseptic 9-Meric Peptide with Potency against Carbapenem-Resistant Acinetobacter baumannii Infection” (International Journal of Molecular Sciences, 2021) come the findings set out here.

≈ marks a conversion by molar mass, not a printed value. Like-named read-outs stand apart in the source and are kept apart here. Where a SMILES comes first, the peptide text is derived from it. [ ]: non-standard residue; d: D form.

The subject of one data set is A. baumannii. The class given is cell-based, Acinetobacter baumannii. As to conditions: peptide pre-incubated 6 h at 37 °C. The method, then: (§1) All the peptides at their MICs were pre-incubated with proteolytic enzymes such as trypsin and α-chymotrypsin (10,000:1; peptide: enzyme ratio) for 6 h at 37 °C. Then, 100 μL of peptide-protease cocktail was added to the 100 µL bacterial suspension (E. coli, A. baumannii and CRAB C0, 2 × 10^5 CFU/mL) and further incubated for 16 h at 37 °C. Bacterial suspension without peptide and protease served as negative control. The analysis was repeated at three times using independent experiments, and the degree of bacterial growth was measured at 600 nm using a microplate reader.

A further data set deals with P. aeruginosa. Description: MIC, broth dilution. Particulars: 16 h, MH media, read-out: Minimal Inhibitory Concentration (MIC). The format is cell-based, Pseudomonas aeruginosa KCCM 11328. The text has this: (§2) Escherichia coli KCTC 1682 was obtained from the Korean Collection for Type Cultures (KCTC) (Jeongeup-si, Korea), Acinetobacter baumannii KCCM 40203, Pseudomonas aeruginosa KCCM 11328 from the Korea Culture Center of Microorganisms (KCCM) (Seoul, Korea). Klebsiella pneumoniae NCCP 16054 were obtained from the National Culture Collection for Pathogens (NCCP) (Osong, Korea). Additionally, two carbapenem-resistant E. coli (CREC E1 and E2), 11 carbapenem-resistant A. baumannii (CRAB C0–C10) and two carbapenem-resistant K. pneumoniae (CRKP K1 and K2) were isolated from the patients, who presented symptoms and signs of infection at Korea University Anam Hospital (Seoul, Korea) (IRB registration no. 2020AN0157, 4 March 2021). CRAB C0–C10 have the OXA-23 gene with carbapenem-resistance.
(§3) The minimum inhibitory concentrations (MIC) were determined using broth dilution method. Briefly, all the mentioned bacterial strains were grown overnight at 37 °C by Muller–Hinton (MH) media. […] After 16 h incubation, the bacterial growth was read at 600 nm using a SpectraMAX microplate reader (Molecular Devices, San Jose, CA, USA).
On the technique in general: In broth dilution the organism is exposed to a series of concentrations in liquid medium.

A further data set relates to CRAB C1. Kind of data set: microbe, parasite or virus in culture. Particulars: CRAB C1.
Text: as §2, §3

A further data set concerns CRAB C8. Kind of data set: microbe, parasite or virus in culture. Particulars: CRAB C8.
Text: as §2, §3

The subject of a further data set is K. pneumoniae. Description: microbe, parasite or virus in culture. Particulars: K. pneumoniae; 16 h, MH media.
Text: as §2, §3

A further data set relates to CREC E2. Kind of data set: MIC, broth dilution. The class given is cell-based, carbapenem-resistant E. coli. Particulars: read-out: Minimal Inhibitory Concentration (MIC).
Text: as §2, §3

The subject of another data set is CREC E1. Kind of data set: MIC, broth dilution. The class given is cell-based, carbapenem-resistant E. coli. As to conditions: read-out: Minimal Inhibitory Concentration (MIC).
Text: as §2, §3

The next data set concerns E. coli. The format is cell-based, Escherichia coli. Particulars: peptide pre-incubated 6 h at 37 °C. The method, then:
as §1

Data set [1] can be described thus: In vivo toxicity, serum AST, ALT, BUN. The arrangement: species or system ICR mice. Particulars: mice, 1 and 5 mg/kg i.p., 24 h. On the procedure: Control mice received phosphate-buffered saline only and the treatment was performed for 24 h. (B) R-Pro9-3D prolonged the survival rate of mice infected with CRAB C0. […] In sepsis model, mice (5 mice per group) were treated with R-Pro9-3D (1 mg/kg) for 1 h and the antiseptic analyses were evaluated after CRAB C0 (6 × 10^6 CFU/mouse, 16 h) infection. (C) R-Pro9-3D restricted the bacterial entry in the lung, liver, and kidneys. The corresponding organ lysates were plated onto agar plates and the total no of bacterial colonies were scored. (D) R-Pro9-3D effectively normalized the endotoxin levels in CRAB C0-infected mice. (E–G) Effect of R-Pro9-3D on serum levels of AST, ALT and BUN. (H–K) R-Pro9-3D inhibited the production of inflammatory cytokines (TNF-α and IL-6) in the serum and lung lysates of CRAB C0-infected mice, as measured by enzyme-linked immunosorbent assay (ELISA). (L) Photomicrograph show the modulatory effect of R-Pro9-3D on neutrophil infiltration in the hematoxylin and eosin (H&E)-stained lung tissues (Magnification 20×, Scale bar 100 μm). […] Values are expressed as mean ± SEM (Five mice per group). […]
The ICR mice (n = 5 per group) were intraperitoneally (i.p.) injected with R-Pro9-3D (1 mg and 5 mg/kg/day in PBS) and the serum levels of AST, ALT, and BUN levels were determined using a standard kit from Asan Pharmaceutical as described previously.

Another data set has as its system CRAB C7. Kind of data set: MIC, broth dilution. The class given is cell-based, carbapenem-resistant A. baumannii. Particulars: read-out: Minimal Inhibitory Concentration (MIC).
Text: as §2, §3

The test system of another data set is CRAB C3. Description: MIC, broth dilution. The class given is cell-based, carbapenem-resistant A. baumannii. Particulars: read-out: Minimal Inhibitory Concentration (MIC).
Text: as §2, §3

In another data set the test system is CRAB C0. Kind of data set: MIC, broth dilution. The format is cell-based, carbapenem-resistant A. baumannii. As to conditions: read-out: Minimal Inhibitory Concentration (MIC).
Text: as §2, §3

Another data set relates to CRAB C4. Kind of data set: MIC, broth dilution. Particulars: read-out: Minimal Inhibitory Concentration (MIC). The format is cell-based, carbapenem-resistant A. baumannii.
Text: as §2, §3

The test system of the next data set is CRAB C2. Description: MIC, broth dilution. The format is cell-based, carbapenem-resistant A. baumannii. As to conditions: read-out: Minimal Inhibitory Concentration (MIC).
Text: as §2, §3

For another data set, the system named is CRAB C6. Kind of data set: MIC, broth dilution. Particulars: read-out: Minimal Inhibitory Concentration (MIC). The format is cell-based, carbapenem-resistant A. baumannii.
Text: as §2, §3

The next data set concerns CRAB C9. Description: MIC, broth dilution. Particulars: read-out: Minimal Inhibitory Concentration (MIC). The format is cell-based, carbapenem-resistant A. baumannii.
Text: as §2, §3

The next data set relates to CRAB C10. Description: MIC, broth dilution. As to conditions: read-out: Minimal Inhibitory Concentration (MIC). The format is cell-based, carbapenem-resistant A. baumannii.
Text: as §2, §3

A further data set concerns CRAB C5. Description: MIC, broth dilution. The format is cell-based, carbapenem-resistant A. baumannii. As to conditions: read-out: Minimal Inhibitory Concentration (MIC).
Text: as §2, §3

Consider `CC[C@@H](C)[C@@H](NC(=O)[C@@H](Cc1c[nH]c2ccccc12)NC(=O)[C@@H](CCCNC(=N)N)NC(=O)[C@H](N)CCCNC(=N)N)C(=O)N[C@H](C)C(=O)N[C@H](CC(C)C)C(=O)N[C@H](Cc1c[nH]c2ccccc12)C(=O)N[C@H](CC(C)C)C(=O)N[C@H](CCCNC(=N)N)C(N)=O` [R-Pro9-3D, rrwialwlr-NH2] (H-[dR][dR][dW][dI][dA][dL][dW][dL][dR]-NH2), for which the “Minimal Inhibitory Concentration (MIC)” value in the data set with A. baumannii (A. baumannii + Trypsin) was 4 µM; in the data set on A. baumannii (A. baumannii + α-Chymotrypsin), 4 µM; in the data set with CRAB C1 it was 8 µM; in the data set on CRAB C8, 4 µM; with K. pneumoniae, 8 µM; in the data set with E. coli (E. coli + Trypsin) it was 8 µM. In addition, in the data set on E. coli (E. coli + α-Chymotrypsin), the “Minimal Inhibitory Concentration (MIC)” value was 8 µM. Besides, the MIC in the data set on P. aeruginosa is reported as 8 µM (≈ 10.1 µg/mL); with CREC E2, 8 µM (≈ 10.1 µg/mL); with CREC E1, 8 µM (≈ 10.1 µg/mL); in the data set with CRAB C7 it was 4 µM (≈ 5.07 µg/mL); in the data set with CRAB C3, 8 µM (≈ 10.1 µg/mL); in the data set on CRAB C0 it was 4 µM (≈ 5.07 µg/mL). The MIC in the data set with CRAB C4, in the data set with CRAB C2, with CRAB C6, in the data set with CRAB C9, in the data set on CRAB C10 and with CRAB C5 was 4 µM (≈ 5.07 µg/mL) throughout. For the same compound, the “Serum levels of AST, ALT and BUN” value in data set [1] is on record as “Neither dose of R-Pro9-3D elevated the levels of these enzymes”.
